Here are results for eleven compounds from patent publication US6403638B1, “2,4-pentadienoic acid derivatives having selective activity for retinoid X (RXR) receptors” (Allergan Sales, Inc., priority 1998, dated 2002).

The target in assay [1] is T1, RXRα (Homo sapiens, UniProt P19793).
T1 construct: expressed in transfected cells
T1 sequence (P19793 1-462): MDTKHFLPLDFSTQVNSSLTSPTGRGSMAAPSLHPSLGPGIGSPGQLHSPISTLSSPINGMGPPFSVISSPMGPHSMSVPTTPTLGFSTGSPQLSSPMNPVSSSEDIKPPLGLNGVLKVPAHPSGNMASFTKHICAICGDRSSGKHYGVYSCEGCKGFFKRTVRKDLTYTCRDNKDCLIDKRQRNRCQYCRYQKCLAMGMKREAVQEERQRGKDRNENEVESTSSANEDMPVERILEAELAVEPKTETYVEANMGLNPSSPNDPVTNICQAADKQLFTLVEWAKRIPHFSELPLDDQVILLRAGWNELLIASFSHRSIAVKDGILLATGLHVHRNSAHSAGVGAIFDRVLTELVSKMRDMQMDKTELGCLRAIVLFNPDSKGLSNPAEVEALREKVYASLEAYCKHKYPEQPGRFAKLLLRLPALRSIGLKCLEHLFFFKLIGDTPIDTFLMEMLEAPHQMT
In words: RXR receptor transactivation assay. Conditions: for Emax: read-out: % Eff RXR α transactivation; for EC50: read-out: EC50 RXR α transactivation. The format is cell-based. The source says: The specification of U.S. Pat. No. 5,455,265 is hereby expressly incorporated by reference.
(§1) A holoreceptor transactivation assay and a ligand binding assay which measure the antagonist/agonist like activity of the compounds of the invention, or their ability to bind to the several retinoid receptor subtypes, respectively, are described in published PCT Application No. WO WO93/11755 (particularly on pages 30-33 and 37-41) published on Jun. 24, 1993, the specification of which is also incorporated herein by reference. A detailed experimental procedure for holoreceptor transactivations has been described by Heyman et al. Cell 68, 397-406, (1992); Allegretto et al. J. Biol. Chem. 268, 26625-26633, and Mangelsdorf et al. The Retinoids: Biology, Chemistry and Medicine, pp 319-349, Raven Press Ltd., New York, which are expressly incorporated herein by reference. The results obtained in this assay are expressed in EC50 numbers, as they are also in the chimeric receptor transactivation assay. The results of ligand binding assay are expressed in Kd numbers. (See Cheng et as. Biochemical Pharmacology Vol. 22 pp 3099-3108, expressly incorporated herein by reference.)

Assay [2] addresses T2, RXRβ (Homo sapiens, UniProt P28702).
T2 construct: expressed in transfected cells
T2 sequence (P28702 1-533): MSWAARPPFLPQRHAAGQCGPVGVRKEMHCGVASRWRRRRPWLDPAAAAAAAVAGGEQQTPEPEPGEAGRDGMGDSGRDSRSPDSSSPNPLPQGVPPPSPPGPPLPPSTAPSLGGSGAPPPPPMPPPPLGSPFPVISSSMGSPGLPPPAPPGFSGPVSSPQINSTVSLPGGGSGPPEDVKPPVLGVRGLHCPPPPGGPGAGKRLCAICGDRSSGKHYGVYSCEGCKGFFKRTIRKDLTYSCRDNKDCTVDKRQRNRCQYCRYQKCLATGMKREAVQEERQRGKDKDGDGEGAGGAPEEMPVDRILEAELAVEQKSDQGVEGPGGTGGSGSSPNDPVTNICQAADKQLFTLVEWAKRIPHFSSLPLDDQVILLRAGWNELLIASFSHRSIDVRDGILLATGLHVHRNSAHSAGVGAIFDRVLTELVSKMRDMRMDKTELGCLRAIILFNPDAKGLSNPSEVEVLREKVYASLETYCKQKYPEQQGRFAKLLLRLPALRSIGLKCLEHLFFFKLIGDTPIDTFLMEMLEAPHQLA
In words: RXR receptor transactivation assay. The format is cell-based. Conditions: for Emax: read-out: % Eff RXR β transactivation; for EC50: read-out: EC50 RXR β transactivation.
Description: as §1

The target of assay [3] is T3, RXRγ (Homo sapiens, UniProt P48443).
T3 construct: expressed in transfected cells
T3 sequence (P48443 1-463): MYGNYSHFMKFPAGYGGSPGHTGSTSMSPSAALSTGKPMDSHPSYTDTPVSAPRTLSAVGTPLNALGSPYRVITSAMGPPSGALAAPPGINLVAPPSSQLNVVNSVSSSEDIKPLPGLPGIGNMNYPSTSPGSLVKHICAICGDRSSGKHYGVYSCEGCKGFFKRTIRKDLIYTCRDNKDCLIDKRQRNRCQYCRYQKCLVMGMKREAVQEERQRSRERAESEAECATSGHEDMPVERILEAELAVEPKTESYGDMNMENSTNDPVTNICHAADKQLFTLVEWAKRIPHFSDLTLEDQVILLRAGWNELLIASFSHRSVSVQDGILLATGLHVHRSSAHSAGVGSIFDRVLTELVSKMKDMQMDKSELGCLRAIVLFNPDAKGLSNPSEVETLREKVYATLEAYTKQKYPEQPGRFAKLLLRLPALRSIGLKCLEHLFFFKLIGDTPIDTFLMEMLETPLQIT
The assay is described as follows: RXR receptor transactivation assay. The format is cell-based. Conditions: for Emax: read-out: % Eff RXR γ transactivation; for EC50: read-out: EC50 RXR γ transactivation.
Description: as §1

Assay [4] addresses T1, RXRα. In words: ligand binding assay. Conditions: read-out: Kd RXR α binding.
Description: as §1

Assay [5] addresses T3, RXRγ. In words: ligand binding assay. Conditions: read-out: Kd RXR γ binding.
Description: as §1

Assay [6] deals with T2, RXRβ. The assay is described as follows: ligand binding assay. Conditions: read-out: Kd RXR β binding.
Description: as §1

As for `CCCC1(c2ccc3c(c2)C(C(C)C)=CCC3(C)C)CC1/C=C/C(C)=C/C(=O)O` (single isomer, unassigned; (+)) [Compound 34], the Emax stood at 105% in assay [1], 98% in assay [2] and 115% in assay [3]. The EC50 was 0.05 nM in assay [1], 0.9 nM in assay [2] and 0.1 nM in assay [3]. In addition, the Kd in assay [4] is 0.01 nM; in assay [5], 1.4 nM.

`CCCC1(c2ccc3c(c2)C(C(C)(C)C)=CCC3(C)C)CC1/C=C/C(C)=C/C(=O)O` (single isomer, unassigned; (+)) [Compound 22]: the results for the Emax in assay [1], in assay [2] and in assay [3] were 94%, 88% and 110%, respectively. Besides, the EC50 in assay [1] is 0.3 nM; in assay [2], 1.8 nM; in assay [3] it was 0.8 nM. The Kd is 0.027 nM in assay [4] and 0.58 nM in assay [5].

Consider `CC(/C=C/[C@@H]1C[C@]1(C)c1ccc2c(c1)OC(C)(C)C=C2C(C)(C)C)=C\C(=O)O` [Compound 88], for which the Emax was found to be 106% in assay [1], 107% in assay [2] and 105% in assay [3]. Besides, the EC50 in assay [1], in assay [2] and in assay [3] was 0.1 nM each time. For the same compound, the values for the Kd in assay [4], in assay [6] and in assay [5] were 0.17 nM, 1.6 nM and 1.4 nM, respectively.

On to `CC1=CC(C)(C)Oc2cc(C3(C)CC3/C=C/C(C)=C/C(=O)O)ccc21` (centres unmarked) [Compound 28], for which the Emax in assay [1] was 103%; in assay [2], 111%; in assay [3], 96%. Also, the EC50 in assay [1] was 0.05 nM; in assay [2], 0.46 nM; in assay [3] it was 0.14 nM. The results for the Kd in assay [4] and in assay [5] were 0.21 nM and 3.1 nM, respectively.

Turning to `CCC1(c2cc(C(C)C)cc(C(C)C)c2)CC1/C=C/C(C)=C/C(=O)O` (single isomer, unassigned; (+)) [Compound 7], the Emax was determined as 147% in assay [1], 152% in assay [2] and 156% in assay [3]. In assay [2], the EC50 amounted to 0.06 nM. For the same compound, the Kd stood at 0.05 nM in assay [4] and 7.3 nM in assay [5].

`CC(/C=C/[C@@H]1C[C@]1(C)c1ccc2c(c1)C(C(C)C)=CCC2(C)C)=C\C(=O)O` [Compound 64, 7(1-Isoproply-4,4-dimethyl-3,4-dihydronaphthalen-7-yl](6S,7S)-6,7-methano-3,7-dimethyl-hepta-2E,4E-dienoic acid]: the Emax in assay [1] was 109%; in assay [2] it was 109%; in assay [3], 108%. The concentration giving a half-maximal response (EC50) in assay [1] turned out to be 0.1 nM; in assay [2] it was 0.3 nM; in assay [3], 0.1 nM. Further, the Kd in assay [4] amounted to 0.7 nM; in assay [6] it was 6 nM; in assay [5], 3 nM.

As for `CC(/C=C/[C@@H]1C[C@]1(C)c1ccc2c(c1)OC(C)(C)C=C2C(C)C)=C\C(=O)O` [Compound 87], the Emax in assay [1] is 102%; in assay [2], 107%; in assay [3], 116%. The results for the EC50 in assay [1], in assay [2] and in assay [3] were 0.1 nM, 0.3 nM and 0.1 nM, respectively. Further, the figures for the Kd in assay [4], in assay [6] and in assay [5] were 0.05 nM, 2.9 nM and 0.32 nM, respectively.

For `CCCCC1=CC(C)(C)Oc2cc([C@@]3(C)C[C@H]3/C=C/C(C)=C/C(=O)O)ccc21` [Compound 89], the Emax in assay [1] was found to be 110%; in assay [2] it was 99%; in assay [3] it was 112%. For the same compound, the EC50 in assay [1], in assay [2] and in assay [3] was 0.1 nM in each case. In addition, the results for the Kd in assay [4], in assay [6] and in assay [5] were 0.19 nM, 0.6 nM and 1.4 nM, respectively.

As to `CC(/C=C/[C@@H]1C[C@]1(C)c1cc(C(C)(C)C)cc(C(C)(C)C)c1)=C\C(=O)O` [Compound 96, 7-(3,5-di-t-Butylphenyl)-(6S,7S)-6,7-methano-3,7-dimethyl-hepta-2E,4E-dienoic acid], the figures for the Emax in assay [1], in assay [2] and in assay [3] were 87%, 85% and 112%, respectively. For the same compound, the EC50 in assay [1] was determined as 1 nM; in assay [2] it was 9 nM; in assay [3], 2 nM. Also, the Kd in assay [4] was determined as 0.6 nM; in assay [6] it was 1.7 nM; in assay [5] it was 2.8 nM.

Take `CC(/C=C/[C@@H]1C[C@]1(C)c1ccc2c(c1)C(C(C)(C)C)=CCC2(C)C)=C\C(=O)O` [Compound 57]: the Emax in assay [1] amounted to 95%; in assay [2], 95%; in assay [3], 89%. For the same compound, the EC50 in assay [1] turned out to be 0.1 nM; in assay [2], 0.7 nM; in assay [3], 0.1 nM. The Kd in assay [4] turned out to be 0.01 nM; in assay [6], 0.8 nM; in assay [5] it was 4.2 nM.

Turning to `CCCC1(c2cc(C(C)(C)C)cc(C(C)(C)C)c2)CC1/C=C/C(C)=C/C(=O)O` (single isomer, unassigned; (+)) [Compound 14], the figures for the Emax in assay [1], in assay [2] and in assay [3] were 93%, 80% and 86%, respectively. Besides, the EC50 came out at 9 nM in assay [1], 4.3 nM in assay [2] and 1.3 nM in assay [3]. For the same compound, the results for the Kd in assay [4] and in assay [5] were 0.03 nM and 3.7 nM, respectively.

By EC50 is commonly meant the concentration at which the effect is half-maximal. One may read the Kd as the equilibrium constant for the complex coming apart.
